Source: patent US20060135574A1, “Novel uses for estrogen beta agonists” (Wyeth, priority 2004, published 2006)

Assays:
hippocampal CA1 region = assay: Synaptic plasticity (LTD/LTP) in the hippocampal CA1 region after ovariectomy; assay type: in vivo, rats; settings: chronic replacement, injection every 48 hours over 5 weeks
Text: In Experiment 1, ovariectomy carried out either five (5) days or five (5) weeks before testing impaired the induction of long-term depression (LTD), but not long-term potentiation (LTP). […] The findings are discussed with reference to (1) the contribution of Ca^2+ regulated synaptic signaling pathways in the CA1 region to estradiol modulation of LTP and LTD and (2) the potential functional significance of ovariectomy-induced changes in synaptic plasticity for learning and memory processes. […] Restoration of impaired synaptic plasticity of ovariectomized female rats following estrogen treatment can be evaluated by the protocol used by Day and Good, January 2005, Neurobiol Learn Mem., 83(1): 13-21.

[1] = test system: young men diagnosed with severe schizophrenia; settings: 33 young men, small doses for two weeks; cited from earlier work
βERKO female mice = assay: Phencyclidine (PCP) induced locomotor activity (LMA) during PCP withdrawal; assay type: in vivo; settings: 0.3 mg/kg on day 5, sub-effective PCP dose after 4 day withdrawal
Description: Animals were treated for five (5) days with PCP. Following this period, the animals were given a 4 day withdrawal period. One group received 0.3mg/kg estradiol benzoate on day 5. […] Thus, the classic estrogen agonist, estradiol benzoate, effectively blocks the effects of PCP on LMA, with other ERβ agonists likely to behave similarly.

[2] = test system: ovariectomized female rats; assay: Working memory, radial arm maze win-shift task; assay type: in vivo; settings: OVX rats; estradiol benzoate 0.02 mg/kg s.c. in oil for 2 days; ERβ and ERα agonists 10 mg/kg for 6 days
Text: Cognitive symptoms of memory, including those from Alzheimer's disease and stroke, can be evaluated by such models as the Fear Conditioning Paradigm (Gould T J et al., 2002 Behav Pharmacol. 13(4):287-94; Hamm A O et al., 2003 Brain 126(Pt 2):267-75) and Radial Arm Test (Aggleton J P et al., 1996 Behav Brain Res. 19(2):133-46), while spatial reference memory and learning can be evaluated in the Morris watermaze (Bontempi B et al., 1996 Eur J Neurosci. 8(11):2348-60). Additionally, memory and hippocampal hypo-functioning can be assessed by measuring the restoration of synaptic plasticity in ovariectomized (OVX) female rats. (Day and Good, 2005 Jan., Neurobiol Learn Mem., 83(1): 13-21). Further, changes in attention function because of schizophrenia can be examined by the five (5) Choice Serial Reaction Time Test (5CSRT) (see Muir J L, et al., 1995 Psychopharmacology (Berl) 118(1): 82-92; Robbins et al., 1998 Ann N Y Acad Sci. 846:222-37).
Female rats were habituated to a water deprivation schedule and to the radial maze for at least one week prior to acquisition. The rats were ovariectomized six to eight (6-8) weeks before testing. Subjects were then treated with either estradiol benzoate (0.02 mg/kg), the ERfl agonist, 7-bromo-2-(4-hydroxyphenyl)-1,3-benzoxazol-5-ol, or an ERα agonist. […]

male mice = settings: cited from earlier work
Male C56/BL6 mice = assay: Apomorphine induced climbing (AIC) in pretreated male mice; assay type: in vivo; settings: for attenuation / blockade of apomorphine induced climbing (AIC): male mice pretreated for 3 consecutive days, estradiol benzoate 0.1, 0.3 and 1 mg/kg, at 24 and 48 hours
Text: Patients can be evaluated for cognitive diseases or disorders by any of the tests known in the art. Preclinically, animals can be evaluated for blockade/attenuation of symptoms associated with schizophrenia. Positive symptoms in animal models of schizophrenia can be evaluated by measuring changes in the overall level of activity of dopamine (DA) activity with concomitant parallel changes in locomotor activity (Depoortere R et al., 2003 Neuropsychopharmacology 28(11):1889-902), D-amphetamine (AMPH) and phencyclidine (PCP) via induction of model psychosis or locomotor hyperactivity (Freed W J et al., 1984 Neuropharmacology 23(2A):175-81; Sams-Dodd, F. 1998 Neuropsychopharmacology 19(1): 18-25). For example, Depoortere et al. have described tests for evaluating locomotor activity, catalepsy, climbing and stereotypy, which relate to positive symptomology and side effect profile, by characterizing compounds with typical and atypical antipsychotic efficacy (2003). Attenuation in apomorphine-induced climbing, stereotypy and catalepsy (AIC) can be evaluated as described by Fung Y K et al. 1986 Pharmacol Biochem Behav. 1986 24(1):139-41 and Fung, et aL, 1987 Steroids 49(4-5):287-94. Additionally, negative symptoms of schizophrenia can be evaluated by measuring social interaction under the influence of NMDA antagonists such as PCP (Sams-Dodd F 1998).
Male C56/BL6 mice were pretreated with estradiol benzoate 0.1, 0.3 and 1 mg/kg and an estrogen beta agonist, 7-bromo-2-(4-hydroxyphenyl)-1,3-benzoxazol-5-ol for three (3) consecutive days, and then evaluated for locomotor activity, catalepsy, AIC and stereotypy. Estradiol benzoate attenuated AIC at 24 and 48 hours (approximately 55%), while the estrogen beta agonist, 7-bromo-2-(4-hydroxyphenyl)-1,3-benzoxazol-5-ol, outperformed estradiol benzoate by inducing a sixty percent (60%) blockade of AIC in the male mice.

male Long Evans rats = assay: Novel Object Recognition; assay type: in vivo; settings: 0.5 mg/kg injected 30 minutes prior to T1; Trial 2 48 hours after Day 2
Description: (§1) Novel Object Recognition is impaired in several disorders of memory including Alzheimer's disease, schizophrenia, mild cognitive impairment (MCI), stroke, amongst others. In rodents, […] is used extensively to examine the effects of drugs on this form of memory. An ERβ agonist, 7-bromo-2-(4-hydroxyphenyl)-1,3-benzoxazol-5-ol, was tested on this form of memory. In the habituation stage (Day 1), the rats, male Long Evans are habituated for 10 minutes each to an arena that contains 2 identical objects (YY). On trial 1 (Day 2), the arena is set up with a different set of identical objects (e.g., BB) and the animals are allowed to spend 5 minutes sniffing each objects. Thirty (30) minutes prior to T1, animals were injected with 7-bromo-2-(4-hydroxyphenyl)-1,3-benzoxazol-5-ol.

aged rats (15 months) = assay: Mild cognitive impairment model: CREB levels and Novel Object Recognition in aged rats; assay type: in vivo; settings: single injection 1 mg/kg 30 minutes prior to testing, compared to young 3 month old rats
Description: as §1
cAMP-response-element-binding protein (CREB) is expressed in all cells in the brain and is a member of a family of proteins that function as transcription factors. […] Aged animals show marked decreases in CREB activation and memory; and this decline in cognition in aged rats is a useful model of mild cognitive impairment seen in humans. As such, an ERβ agonist, 7-bromo-2-(4-hydroxyphenyl)-1,3-benzoxazol-5-ol, was tested on this form of recognition memory. […]

Row | SMILES | induction of LTP (hippocampal CA1 region) | magnitude of paired-pulse induced LTD in the CA1 region (hippocampal CA1 region) | hallucinations and delusions [1] | effect on PCP induced LMA (βERKO female mice) | working memory in the radial arm maze [2] | effect on apomorphine induced climbing (male mice) | attenuation / blockade of apomorphine induced climbing (AIC) (Male C56/BL6 mice) | time investigating the novel object versus the familiar object in Trial 2 (male Long Evans rats) | CREB levels (aged rats (15 months)) | memory in the NOR method (aged rats (15 months)) | blockade of AIC compared with estrogen treatment (FIG. 1) (Male C56/BL6 mice; 3 days of treatment)
1 | C[C@]12CC[C@@H]3c4ccc(O)cc4CC[C@H]3[C@@H]1CC[C@@H]2O [17β-estradiol] | no effect on the induction of LTP | enhanced the magnitude of paired-pulse induced LTD | significant decline in hallucinations and delusions | – | – | – | – | – | – | – | –
2 | C[C@]12CC[C@@H]3c4ccc(OC(=O)c5ccccc5)cc4CC[C@H]3[C@@H]1CC[C@@H]2O [estradiol benzoate] | – | – | – | successfully blocked the effect of PCP induced LMA | improved working memory | attenuate apomorphine induced climbing | approximately 55% | – | – | – | –
3 | Oc1ccc(-c2nc3cc(O)cc(Br)c3o2)cc1 [7-bromo-2-(4-hydroxyphenyl)-1,3-benzoxazol-5-ol] | – | – | – | – | improved working memory | – | 60% | significantly improved | restored the CREB levels | increased memory | more profound blockade of AIC
